According to publication PMC9411558, “Toxicity mechanisms of aflatoxin M1 assisted with molecular docking and the toxicity-limiting role of trans-resveratrol” (Scientific Reports, 2022):
Values joined by “and” are separate entries in the source; they are usually repeats but may differ in a detail not shown here. Identical values can stand only once. Like-named read-outs stand apart in the source and are kept apart here. Marks after values point to notes of the source that are not given here.

Key:
[1] = format: in vivo, Mus musculus
Protocol: In this study, 36 healthy male Mus musculus (12–14 weeks old, 25–30 g) were used as subjects and obtained from GRU-Experimental Animals Laboratory. Albino mice were maintained in stainless steel cages, at 22 ± 3 °C and 55 ± 5% relative humidity, 12 h light/12 h dark cycle. All experiments were performed in accordance with the guidelines of the Animal Experiments Local Ethics Committee of Giresun University and approved by the Animal Ethics Committee of Giresun University (protocol number: 2017/02). This study was carried out in compliance with the ARRIVE guidelines. Six groups were formed with six mice in each group.
After the mice were stunned under halothane anesthesia, their body weights were measured before the administration period and at the end of the 28-day administration period. In addition, at the end of the 28th day, the liver and kidney organs of the sacrificed mice were isolated and their weights were measured.

[2] = format: in vivo, Mus musculus; remark: listed apart in the source
Protocol: In order to interpret the changes in body weight and organ weights, the weekly feed consumption of the mice was measured. Albino mice can consume approximately 3–4 g of feed in a day[15]. In line with this information, 30 g of feed per day were put into the cages, with 5 g for each mouse in each group. Feed consumption was calculated by measuring the amount of feed remaining in the container at the end of the 7th day of each week during the 28-day application period.

[3] = Serum parameters (AST, ALT, BUN, creatinine); format: in vivo, Mus musculus
Protocol: Whole blood samples from mice stunned under halothane anesthesia were collected in vacuum tubes and centrifuged at 1200g at + 4 °C for 10 min. In serum obtained from blood, aspartate aminotransferase (AST, Teco Diagnostics, CAT. NO: A559–150), alanine aminotransferase (ALT, Teco Diagnostics, CAT. NO: A524–150), blood urea nitrogen (BUN, Teco Diagnostics, CAT. NO: B549–150) and creatinine (Teco Diagnostics) levels were measured on a Medispec 99M autoanalyzer using a commercial kit[16].

[4] = system: liver and kidney tissues; test: Antioxidant/oxidant balance: MDA and GSH levels in kidney and liver; format: in vivo, Mus musculus
Protocol: To determine the effects of AFM1 and t-rsv on antioxidant/oxidant balance, malondialdehyde and glutathione levels were measured in the kidney and liver. For this purpose, liver and kidney organs were isolated from each mouse sacrificed under halothane anesthesia and washed with a sterile solution. Liver and kidney organs were homogenized with cold 0.15 M KCl solution. Homogenates were centrifuged at 5000g and 4 °C for 1 h and MDA and GSH analyzes were performed in the supernatant.

[5] = system: bone marrow cells; format: in vivo, Mus musculus
Protocol: (§1) The genotoxic effects of AFM1 and the genotoxicity reducing effects of t-rsv were determined by MN and CAs analyses. MN test was performed in erythrocyte, buccal mucosa epithelium and leukocyte cells. CAs analyzes were investigated in bone marrow cells. The cytotoxic effects of AFM1 and the cytotoxicity reducing effects of t-rsv were determined by MI in bone marrow cells.
CAs and MI analysis were determined in the bone marrow. For this aim, mice treated with 0.025% colchicine were sacrificed 2 h later under halothane anesthesia. Bone marrow obtained from the femurs of mice was aspirated, washed with the physiological solution and 0.075 M KCl was transferred. After fixation with Carnoy's solution, samples stained with Giemsa (5%) were examined under a microscope. […] In prepared slides, MI was determined as the percentage of dividing cells among 1000 nucleated cells for each group. Recovery effects (RE) of t-rsv against AFM1 induced genotoxicity were calculated by using Eq. (1). In determining RE, data belonging to Group VI, where t-rsv provided the highest healing effect, Group IV, in which AFM1 was treated alone, and the control group were used.1 RE%=D1-D2/D3-D2×100 D1: data of AFM1 + t-rsv treated group, D2: Data of AFM1 treated group, D3: data of control.

[6] = system: bone marrow cells; format: in vivo, Mus musculus; remark: listed apart in the source
Protocol: as §1
CAs and MI analysis were determined in the bone marrow. For this aim, mice treated with 0.025% colchicine were sacrificed 2 h later under halothane anesthesia. Bone marrow obtained from the femurs of mice was aspirated, washed with the physiological solution and 0.075 M KCl was transferred. After fixation with Carnoy's solution, samples stained with Giemsa (5%) were examined under a microscope. MI rates and CAs frequencies were determined in the prepared slides and 1.000 cells were analyzed for each group. In prepared slides, MI was determined as the percentage of dividing cells among 1000 nucleated cells for each group. Recovery effects (RE) of t-rsv against AFM1 induced genotoxicity were calculated by using Eq. (1). In determining RE, data belonging to Group VI, where t-rsv provided the highest healing effect, Group IV, in which AFM1 was treated alone, and the control group were used.1 RE%=D1-D2/D3-D2×100 D1: data of AFM1 + t-rsv treated group, D2: Data of AFM1 treated group, D3: data of control.

[7] = system: leukocyte cell nuclei; format: in vivo, swiss albino mice
Protocol: The protocol of Tice et al.[19] was performed for alkaline single cell gel electrophoresis with slight modifications. Slides were dipped in 1% normal melting point agarose for coating and allowed to dry at 37 °C. 10 µL of peripheral blood were added to 120 µL of 0.5% low-melting-point agarose at 37 °C, layered onto a coated slide, covered with a coverslip and left at 4 °C for 5 min. to solidify the agarose. The coverslip was removed and the slides were immersed into a lysis solution (2.5 M NaCl, 100 mm Na2EDTA, 10 mM Tris–HCl buffer, pH 10, 1% Triton X-100) for approximately 1 h. After lysis, the slides were transferred to a horizontal gel electrophoresis tank with a fresh and cooled alkaline buffer. After a 20 min. DNA unwinding period, electrophoresed at 0.86 V/cm (20 V, 300 mA) for 20 min. […] To prevent DNA damage, all steps were performed in low light and analyzed by fluorescence microscopy. Comets were analyzed with Comet Assay software version 1.2.3b[20] with the parameters of tail DNA length. A total of 600 cells were analyzed for each group, 100 in each animal for DNA damage. The extent of DNA damage was scored from 0 to 4 depending upon the level of DNA damage. […] The total DNA damage per group, expressed as arbitrary units, was calculated using Eq. (2).2 Arbitraryunit=∑i=04Nixi (i: degree of damage (0, 1, 2, 3, 4), Ni: the number of cells in i degree).

[8] = system: buccal mucosa epithelial cells; test: MN test in buccal mucosa epithelial cells; format: in vivo, Mus musculus; conditions: 20 mg/kg t-rsv against 16 mg/kg AFM1
Protocol: as §1
For the MN test in the buccal mucosa epithelial cells, the mouths of the mice stunned with halothane anesthesia were rinsed with distilled water, and epithelial cells were taken from the left and right buccal mucosa and spread on the slide. Preparations fixed in methanol: acetic acid solution were stained with Fast Green and Feulgen then examined with a research microscope. For the MN test in erythrocytes, blood samples (5 µL) from the tail veins of mice stunned with halothane anesthesia were mixed with EDTA (3%) solution and spread on sterile slides. The preparations were fixed in ethanol (70%) for 2 min. were left to dry at 21 °C for 24 h. Slides were stained with Giemsa (5%) for 15 min. and analyzed under a microscope. For the leukocyte MN test, blood samples were obtained from each mouse and centrifuged at 5000 rpm for 10 min. 5 mL of 0.075 M KCl solution was transferred to the pellet. […]

[9] = system: albino mice; conditions: 10 mg/kg and 20 mg/kg doses
[10] = in vivo; cited from earlier work
[11] = rabbit, in vivo; cited from earlier work
[12] = Group II: 10 mg/kg b.w. t-rsv, 28 days
[13] = Group III: 20 mg/kg b.w. t-rsv, 28 days
[14] = Group II: 10 mg/kg b.w. t-rsv, 600 cells analyzed
[15] = Group III: 20 mg/kg b.w. t-rsv, 600 cells analyzed

Compound: COc1cc2c(c3oc(=O)c4c(c13)CCC4=O)C1(O)C=COC1O2 (centres unmarked) [AFM1, Aflatoxin M1]
- decrease in kidney weight compared to the control group ([1]; mouse, in vivo): 51.3%
- decrease in liver weight compared to the control group ([1]; mouse, in vivo): 43.1%
- Organ weight, kidney ([1]; mouse, in vivo, iv, 16 mg/kg): 0.74 ± 0.15^d
- Organ weight, liver ([1]; mouse, in vivo, iv, 16 mg/kg): 1.50 ± 0.24^d
- Feed consumption, 7th day ([2]; mouse, in vivo, iv, 16 mg/kg): 148.6
- Feed consumption, 14th day ([2]; mouse, in vivo, iv, 16 mg/kg): 147.1
- Feed consumption, 21st day ([2]; mouse, in vivo, iv, 16 mg/kg): 131.1
- Feed consumption, 28th day ([2]; mouse, in vivo, iv, 16 mg/kg): 119.8
- increase in ALT level compared to the control group ([3]; mouse, in vivo, iv, 16 mg/kg): 35.8%
- increase in AST level compared to the control group ([3]; mouse, in vivo, iv, 16 mg/kg): 33.6%
- increase in BUN level compared to the control group ([3]; mouse, in vivo, iv, 16 mg/kg): 43.6%
- increase in creatinine level compared to the control group ([3]; mouse, in vivo, iv, 16 mg/kg): 58.4%
- decrease of kidney GSH level compared to the control group ([4]; mouse, in vivo): 39.3%
- decrease of liver GSH level compared to the control group ([4]; mouse, in vivo): 63.7%
- increase of kidney MDA level compared to the control group ([4]; mouse, in vivo): 1.41 times
- increase of liver MDA level compared to the control group ([4]; mouse, in vivo): 1.22 times
- CAs frequency, Acentric ([5]; mouse, in vivo, iv, 16 mg/kg): 12.70 ± 0.94^a
- CAs frequency, Break ([5]; mouse, in vivo, iv, 16 mg/kg): 60.20 ± 4.38^a
- CAs frequency, Dicentric ([5]; mouse, in vivo, iv, 16 mg/kg): 8.20 ± 0.84^a
- CAs frequency, Fragment ([5]; mouse, in vivo, iv, 16 mg/kg): 31.80 ± 3.12^a
- CAs frequency, Gap ([5]; mouse, in vivo, iv, 16 mg/kg): 20.80 ± 2.65^a
- CAs frequency, Ring ([5]; mouse, in vivo, iv, 16 mg/kg): 48.40 ± 4.15^a
- decrease in MI rate compared to the control group ([6]; mouse, in vivo): 32.5%
- average DNA damage score ([7]; mouse, in vivo, iv, 16 mg/kg): 255.67 ± 16.57
- decrease in body weight compared to the control group (mouse, in vivo): 17.5%
- FBW: Final body weight (mouse, in vivo, iv, 16 mg/kg): 41.38 ± 1.98 g
- TWG: Total weight gain (mouse, in vivo, iv, 16 mg/kg): 3.5 g and 3.50^d g

Compound: Oc1ccc(/C=C/c2cc(O)cc(O)c2)cc1 [t-rsv, trans-resveratrol]
- Organ weight, kidney [1, 12]: 1.55 ± 0.30^a
- Organ weight, liver [1, 12]: 2.62 ± 0.34^a
- Organ weight, kidney [1, 13]: 1.53 ± 0.26^a
- Organ weight, liver [1, 13]: 2.65 ± 0.42^a
- Feed consumption, 7th day ([2]; Group II: 10 mg/kg b.w. t-rsv): 151.9
- Feed consumption, 14th day ([2]; Group II: 10 mg/kg b.w. t-rsv): 152.7
- Feed consumption, 21st day ([2]; Group II: 10 mg/kg b.w. t-rsv): 155.7
- Feed consumption, 28th day ([2]; Group II: 10 mg/kg b.w. t-rsv): 153.2
- Feed consumption, 7th day ([2]; Group III: 20 mg/kg b.w. t-rsv): 157.6
- Feed consumption, 14th day ([2]; Group III: 20 mg/kg b.w. t-rsv): 153.2
- Feed consumption, 21st day ([2]; Group III: 20 mg/kg b.w. t-rsv): 155.6
- Feed consumption, 28th day ([2]; Group III: 20 mg/kg b.w. t-rsv): 151.9
- protection against abnormalities in serum parameters ([3]; 20 mg/kg t-rsv against AFM1): 45.69–60.3%
- decrease in MDA level ([4]; t-rsv with AFM1, liver and kidney, dose not stated): 16%
- RE, MN Buccosal [8]: 48.9%
- reduction in CA types ([5]; 10 mg/kg and 20 mg/kg t-rsv treatment with AFM1): 22.6–63.9%
- reduction of gap formation ([5]; 20 mg/kg t-rsv with AFM1): 63.9%
- CAs frequency, Acentric [5, 14]: 0.00 ± 0.00^d
- CAs frequency, Break [5, 14]: 0.00 ± 0.00^d
- CAs frequency, Dicentric [5, 14]: 0.00 ± 0.00^d
- CAs frequency, Fragment [5, 14]: 0.00 ± 0.00^d
- CAs frequency, Gap [5, 14]: 0.00 ± 0.00^d
- CAs frequency, Acentric [5, 15]: 0.00 ± 0.00^d
- CAs frequency, Break [5, 15]: 0.00 ± 0.00^d
- CAs frequency, Dicentric [5, 15]: 0.00 ± 0.00^d
- CAs frequency, Fragment [5, 15]: 0.00 ± 0.00^d
- CAs frequency, Gap [5, 15]: 0.00 ± 0.00^d
- RE, MI Rate ([6]; 20 mg/kg t-rsv against 16 mg/kg AFM1): 80.7%
- MI levels ([6]; control group, 10 mg/kg, 20 mg/kg t-rsv-treated groups): 13.9–14.3%
- DNA damage by t-rsv application alone ([7]; Group II and III vs control, p > 0.05): did not induce DNA damage
- FBW: Final body weight [12]: 49.91 ± 2.10 g
- TWG: Total weight gain [12]: 11.96^a g
- FBW: Final body weight [13]: 50.66 ± 2.18 g
- TWG: Total weight gain [13]: 12.40^a g
- toxic effect of resveratrol alone [9]: did not have a toxic effect

Compound: Aflatoxin B1 [AFB1]
- reduction of weight gain compared to control [10]: 33.94%
- body weight loss compared to the control group [11]: approximately 539 g

Compound: Aflatoxin G2 [AFG2]
- body weight loss compared to the control group [11]: approximately 539 g
